*1 amine or outer side, *2 acyl side, *3 side chain or, on linkers, in order; H or OH if unused. Where a SMILES comes first, the peptide text is derived from it. [ ]: non-standard residue; d: D form. The star is where a group is joined. NH(CH2CH2O)2(CH2)6Cl = ClCCCCCCOCCOCCN*; Suc = O=C(CCC(=O)[*:2])[*:1]; 2Pyrimidinyl = c1cnc(*)nc1; Orn = NCCC[C@H](N)C(=O)O
System: HEK cells stably expressing a HaloTag-GFP-mitochondrial localized construct
Assay: Chloroalkane penetration/permeability assay (CAPA)
Assay type: in vitro ADME
Conditions: modified peptide versus its unmodified control (ct-1l, ct-1m)
Procedure: at room temperature. Peptides were synthesized using standard protocols. Peptides were cleaved from the resin using a cocktail of 95:5, trifluoroacetic acid:water for 2 h. The resin was removed by filtration, and the resulting solution was concentrated via air flow. The residue was washed with cold ether (3 x 10 mL), precipitating a white solid. Ether was removed via vacuum overnight. The white solid was diluted with ACN/H2O mixture. The resulting solution was purified by HPLC.
VI. BD FACSymphony™ Flow Cytometer. Flow cytometry analysis was performed on a BD FACSymphony™ system equipped with decagon (2-10 PMTs) or cascade (2-20 PMTs) detector arrays. […] Signal detection combines PMTs (side scatter/fluorescence) and photodiodes (forward scatter), with longpass dichroic and bandpass filters for wavelength selection. […] The absorbance of the molecule is 533 nm and emission is […]
VII. […] After recovery from selection and reaching near-confluency, the cells were deemed ready for CAPA experiments. […]
Experimental Protocol Design Control Implementation. […] No-molecule control wells receive only dilution buffer during the pulse step, thereby establishing the maximum red fluorescence baseline. […]

| Compound | increase in membrane permeability following conversion of arginine into the amino pyrimidine derivative [fold] |
| --- | --- |
| CC(C)[C@H](NC(=O)CCC(=O)NCCOCCOCCCCCCCl)C(=O)NCC(=O)N[C@@H](CCCNc1ncccn1)C(=O)N[C@@H](C)C(=O)N[C@@H](Cc1c[nH]c2ccccc12)C(=O)N[C@@H](CC(N)=O)C(=O)N[C@@H](Cc1ccc(O)cc1)C(=O)N[C@@H](C)C(N)=O [ct-2m] ({NH(CH2CH2O)2(CH2)6Cl-Suc}-VG[Orn](2Pyrimidinyl)AWNYA-NH2) | 2 |
| CC[C@H](C)[C@H](NC(=O)[C@H](CO)NC(=O)[C@@H](NC(=O)[C@@H]1CCCN1C(=O)[C@H](CCCNc1ncccn1)NC(=O)[C@H](Cc1c[nH]c2ccccc12)NC(=O)CCC(=O)NCCOCCOCCCCCCCl)C(C)C)C(N)=O [ct-2l] ({NH(CH2CH2O)2(CH2)6Cl-Suc}-W[Orn](2Pyrimidinyl)PVSI-NH2) | 2 |

Source: paper PMC12624831, “Expanding Peptide Chemical Space via Acid-Mediated Arginine Modification” (Organic Letters, 2025)
